{
  "source": "ChEMBL document CHEMBL6074641",
  "about": "“Polypharmacological Drug Design Guided by Integrating Phenotypic and Restricted Fragment Docking Strategies” (J Med Chem, 2024)",
  "key": {"[1]": {"test_system": "BV-2", "test": "Anti-necroptosis activity in mouse BV-2 cells at 10 uM preincubated with LPS for 11 hrs followed by compound addition for 1 hr and exposed to zVAD-fmk for another 24 hrs by Cellcounting-Lite 2.0 luminescent cell viability assay", "assay_type": "functional, cell-based", "conditions": "time 25.0 hrs"}, "[2]": {"test_system": "Mus musculus", "test": "Downregulation of ALK phosphorylation in 3xTg mouse hippocampus at 2 to 10 mg/kg, po by immunohistochemistry analysis", "assay_type": "functional, organism-based", "conditions": "dose 2-10 mg/kg"}, "[3]": {"test_system": "BV-2", "test": "Inhibition of MLKL activation in mouse BV-2 cells by Western blotting analysis", "assay_type": "cell-based", "conditions": "dose 4-100 nM"}, "[4]": {"test_system": "Microglia", "test": "Anti-necroptosis activity in LPS/zVAD stimulated mouse primary microglia transfected with HA-tagged MAP4K4 plasmid assessed as protection of microglia cells at 100 nM", "assay_type": "functional, cell-based"}, "[5]": {"test_system": "Microglia", "test": "Anti-necroptosis activity in LPS/zVAD stimulated mouse primary microglia overexpressed with ALK assessed as reversal of severe membrane disruption by TEM analysis", "assay_type": "functional, cell-based"}, "[6]": {"test_system": "Mus musculus", "test": "Anti-alzheimer activity against 8 month old 3xTg mouse model assessed as increase in beta-III tubulin expression at 10 mg/kg, po", "assay_type": "functional, organism-based"}, "[7]": {"molecular_target": "Voltage-gated inwardly rectifying potassium channel KCNH2 (Homo sapiens, UniProt Q12809)", "sequence (Q12809 whole entry)": "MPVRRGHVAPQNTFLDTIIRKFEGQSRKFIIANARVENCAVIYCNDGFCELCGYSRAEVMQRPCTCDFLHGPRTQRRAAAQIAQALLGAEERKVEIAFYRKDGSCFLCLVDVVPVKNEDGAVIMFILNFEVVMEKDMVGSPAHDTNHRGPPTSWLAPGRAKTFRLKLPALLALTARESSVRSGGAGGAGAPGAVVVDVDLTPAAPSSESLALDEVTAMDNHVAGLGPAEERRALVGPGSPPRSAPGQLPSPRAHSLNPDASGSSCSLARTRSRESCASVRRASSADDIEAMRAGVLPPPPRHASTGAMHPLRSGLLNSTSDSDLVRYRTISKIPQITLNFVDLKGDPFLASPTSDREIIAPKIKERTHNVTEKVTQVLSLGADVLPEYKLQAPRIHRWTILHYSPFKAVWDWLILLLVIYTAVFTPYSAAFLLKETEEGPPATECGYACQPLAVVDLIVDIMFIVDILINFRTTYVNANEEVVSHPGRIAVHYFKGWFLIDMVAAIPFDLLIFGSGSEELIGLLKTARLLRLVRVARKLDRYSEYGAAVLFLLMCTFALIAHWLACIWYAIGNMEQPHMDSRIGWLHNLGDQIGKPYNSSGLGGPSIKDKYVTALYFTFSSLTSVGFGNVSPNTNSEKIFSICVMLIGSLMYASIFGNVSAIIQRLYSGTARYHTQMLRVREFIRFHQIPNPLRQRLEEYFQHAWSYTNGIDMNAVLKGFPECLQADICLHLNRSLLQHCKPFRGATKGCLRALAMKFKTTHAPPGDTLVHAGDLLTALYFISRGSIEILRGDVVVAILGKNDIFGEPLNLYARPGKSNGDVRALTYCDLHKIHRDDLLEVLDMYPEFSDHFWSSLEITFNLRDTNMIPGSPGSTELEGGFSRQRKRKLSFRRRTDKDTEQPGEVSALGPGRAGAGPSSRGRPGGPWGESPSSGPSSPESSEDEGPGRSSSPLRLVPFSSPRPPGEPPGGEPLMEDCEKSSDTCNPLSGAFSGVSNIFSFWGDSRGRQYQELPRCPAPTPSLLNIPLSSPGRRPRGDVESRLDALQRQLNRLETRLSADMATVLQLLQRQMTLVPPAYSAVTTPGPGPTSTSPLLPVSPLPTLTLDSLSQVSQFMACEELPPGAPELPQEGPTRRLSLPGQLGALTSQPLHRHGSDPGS", "test": "Inhibition of human ERG expressed in CHO cells by Qpatch clamp method", "assay_type": "toxicity, cell-based"}, "[8]": {"test_system": "Microglia", "test": "Anti-necroptosis activity in LPS/zVAD stimulated mouse primary microglia transfected with Myc-tagged ALK plasmid assessed as protection of microglia cells at 100 nM", "assay_type": "functional, cell-based"}, "[9]": {"test_system": "Mus musculus", "test": "Anti-alzheimer activity against 8 month old 3xTg mouse model assessed as reduction in p-Tau181 content at 2 to 10 mg/kg, po", "assay_type": "functional, organism-based", "conditions": "dose 2-10 mg/kg"}, "[10]": {"molecular_target": "ALK tyrosine kinase receptor (Homo sapiens, UniProt Q9UM73, E1167A)", "sequence (Q9UM73 19-1620 E1167A limits assumed)": "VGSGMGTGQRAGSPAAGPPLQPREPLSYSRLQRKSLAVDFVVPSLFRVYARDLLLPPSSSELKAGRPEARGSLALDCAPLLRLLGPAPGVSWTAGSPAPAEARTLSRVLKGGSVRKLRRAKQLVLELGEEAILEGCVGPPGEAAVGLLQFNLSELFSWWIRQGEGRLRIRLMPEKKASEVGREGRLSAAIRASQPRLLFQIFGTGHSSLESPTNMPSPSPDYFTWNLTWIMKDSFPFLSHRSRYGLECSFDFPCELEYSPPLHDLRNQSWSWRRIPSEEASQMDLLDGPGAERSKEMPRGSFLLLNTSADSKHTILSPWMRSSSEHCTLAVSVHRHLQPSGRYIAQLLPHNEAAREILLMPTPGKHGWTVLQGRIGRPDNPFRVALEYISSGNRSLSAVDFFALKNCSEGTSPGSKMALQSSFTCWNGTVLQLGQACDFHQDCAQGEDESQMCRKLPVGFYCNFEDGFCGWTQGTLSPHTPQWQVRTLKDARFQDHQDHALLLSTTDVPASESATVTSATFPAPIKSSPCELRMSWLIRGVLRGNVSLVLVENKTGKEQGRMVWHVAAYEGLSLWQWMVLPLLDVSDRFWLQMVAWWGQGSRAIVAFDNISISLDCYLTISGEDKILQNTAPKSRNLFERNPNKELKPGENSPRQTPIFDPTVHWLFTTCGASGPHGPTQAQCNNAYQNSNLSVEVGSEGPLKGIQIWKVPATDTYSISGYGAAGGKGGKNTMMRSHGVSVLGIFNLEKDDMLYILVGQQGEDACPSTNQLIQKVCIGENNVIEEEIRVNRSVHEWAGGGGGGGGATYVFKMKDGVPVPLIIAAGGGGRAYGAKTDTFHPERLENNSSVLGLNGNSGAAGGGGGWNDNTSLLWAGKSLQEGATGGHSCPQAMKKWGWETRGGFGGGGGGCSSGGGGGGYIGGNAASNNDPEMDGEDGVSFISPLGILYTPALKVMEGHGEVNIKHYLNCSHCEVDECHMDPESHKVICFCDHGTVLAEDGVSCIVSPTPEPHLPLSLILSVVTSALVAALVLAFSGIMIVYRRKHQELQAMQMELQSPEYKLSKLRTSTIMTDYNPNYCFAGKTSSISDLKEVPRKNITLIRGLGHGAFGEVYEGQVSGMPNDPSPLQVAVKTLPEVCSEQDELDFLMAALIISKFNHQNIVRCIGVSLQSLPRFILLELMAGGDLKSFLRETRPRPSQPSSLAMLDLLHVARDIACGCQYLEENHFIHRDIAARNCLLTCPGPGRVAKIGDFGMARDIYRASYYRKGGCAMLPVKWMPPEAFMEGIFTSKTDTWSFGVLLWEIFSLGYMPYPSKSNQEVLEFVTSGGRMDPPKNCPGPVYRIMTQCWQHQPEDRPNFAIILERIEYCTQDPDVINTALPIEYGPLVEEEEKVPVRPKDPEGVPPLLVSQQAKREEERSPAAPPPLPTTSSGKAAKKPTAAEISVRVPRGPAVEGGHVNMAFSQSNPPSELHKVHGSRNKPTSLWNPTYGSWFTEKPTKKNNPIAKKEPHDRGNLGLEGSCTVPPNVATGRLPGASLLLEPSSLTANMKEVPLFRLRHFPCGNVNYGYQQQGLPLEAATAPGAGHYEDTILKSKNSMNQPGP", "test": "Inhibition of ALK E1167A mutant (unknown origin) expressed in Escherichia coli BL21 (DE3)"}, "[11]": {"test": "Tmax in C57BL/6 mouse plasma at 10 mg/kg, po measured upto 24 hrs by LC-MS/MS analysis", "assay_type": "ADME, organism-based"}, "[12]": {"test_system": "Mus musculus", "test": "Anti-alzheimer activity against 8 month old 3xTg mouse model assessed as improved learning ability at 2 to 10 mg/kg, po administered 4 times per week for 4 weeks", "assay_type": "functional, organism-based", "conditions": "dose 2-10 mg/kg"}, "[13]": {"test": "Anti-necroptosis activity in LPS/zVAD stimulated mouse primary microglia assessed as protection of microglia cells at 100 nM", "assay_type": "functional"}, "[14]": {"test": "AUC(0 to t) in C57BL/6 mouse brain at 10 mg/kg, po measured upto 24 hrs by LC-MS/MS analysis", "assay_type": "ADME, organism-based"}, "[15]": {"test_system": "Mus musculus", "test": "Anti-alzheimer activity against 5 month old APP/PS1 transgenic mouse model assessed as […] at 2 mg/kg, po administered 4 times per week for 4 weeks", "assay_type": "functional, organism-based"}, "[16]": {"test_system": "Mus musculus", "test": "Anti-alzheimer activity against 5 month old APP/PS1 transgenic mouse model assessed as improved spatial preference towards annulus at 10 mg/kg, po administered 4 times per week for 4 weeks", "assay_type": "functional, organism-based"}, "[17]": {"molecular_target": "T1, Receptor-interacting serine/threonine-protein kinase 1 (Homo sapiens) (UniProt Q13546)", "T1 sequence (whole entry)": "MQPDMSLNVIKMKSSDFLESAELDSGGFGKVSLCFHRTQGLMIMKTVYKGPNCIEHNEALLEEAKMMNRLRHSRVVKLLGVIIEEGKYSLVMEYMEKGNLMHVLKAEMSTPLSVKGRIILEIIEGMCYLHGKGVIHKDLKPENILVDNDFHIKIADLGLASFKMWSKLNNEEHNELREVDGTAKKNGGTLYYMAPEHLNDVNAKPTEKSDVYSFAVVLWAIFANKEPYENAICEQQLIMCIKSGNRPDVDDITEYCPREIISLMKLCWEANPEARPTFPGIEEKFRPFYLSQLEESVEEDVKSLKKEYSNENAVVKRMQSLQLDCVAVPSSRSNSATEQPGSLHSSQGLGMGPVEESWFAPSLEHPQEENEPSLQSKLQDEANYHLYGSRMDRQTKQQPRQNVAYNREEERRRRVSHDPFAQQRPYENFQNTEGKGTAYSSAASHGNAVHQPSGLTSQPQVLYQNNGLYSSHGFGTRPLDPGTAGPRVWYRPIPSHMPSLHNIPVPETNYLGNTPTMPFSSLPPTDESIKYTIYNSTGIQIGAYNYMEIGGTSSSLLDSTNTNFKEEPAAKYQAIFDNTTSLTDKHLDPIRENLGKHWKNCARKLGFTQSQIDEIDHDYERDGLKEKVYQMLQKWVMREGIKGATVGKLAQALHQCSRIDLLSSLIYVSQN", "test": "Inhibition of RIPK1 (unknown origin) at 1 uM"}, "[18]": {"test_system": "Mus musculus", "test": "Anti-necroptosis activity in 3xTg mouse hippocampus assessed as reduction in Iba activation at 2 to 10 mg/kg, po", "assay_type": "functional, organism-based", "conditions": "dose 2-10 mg/kg"}, "[19]": {"test_system": "Microglia", "test": "Anti-necroptosis activity in LPS/zVAD stimulated mouse primary microglia assessed as reversal of translucent cytoplasm by TEM analysis", "assay_type": "functional, cell-based"}, "[20]": {"molecular_target": "Cytochrome P450 2C8 (Homo sapiens, UniProt P10632)", "sequence (P10632 whole entry)": "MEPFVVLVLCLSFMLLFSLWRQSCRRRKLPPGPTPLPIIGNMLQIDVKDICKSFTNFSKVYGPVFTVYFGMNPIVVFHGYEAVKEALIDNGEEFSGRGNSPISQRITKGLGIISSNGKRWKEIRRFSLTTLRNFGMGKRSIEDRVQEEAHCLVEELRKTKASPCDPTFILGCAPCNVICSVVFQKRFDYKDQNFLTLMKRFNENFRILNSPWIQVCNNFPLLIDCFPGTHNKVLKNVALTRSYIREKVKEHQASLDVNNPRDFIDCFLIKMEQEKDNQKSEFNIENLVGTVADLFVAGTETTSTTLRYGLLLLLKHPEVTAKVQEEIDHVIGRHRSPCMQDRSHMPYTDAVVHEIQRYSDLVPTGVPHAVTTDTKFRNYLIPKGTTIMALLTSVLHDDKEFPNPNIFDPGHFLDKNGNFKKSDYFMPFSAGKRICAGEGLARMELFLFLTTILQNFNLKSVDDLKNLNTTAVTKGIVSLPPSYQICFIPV", "test": "Inhibition of CYP2C8 (unknown origin) incubated for 10 mins in presence of NADPH by LC-MS/MS analysis", "assay_type": "ADME"}, "[21]": {"test_system": "Microglia", "test": "Anti-necroptosis activity in LPS/zVAD stimulated mouse primary microglia overexpressed with MAP4K4 assessed as reversal of severe membrane disruption by TEM analysis", "assay_type": "functional, cell-based"}, "[22]": {"molecular_target": "ALK tyrosine kinase receptor (Homo sapiens, UniProt Q9UM73)", "test": "Inhibition of recombinant ALK (1060 to end residues) (unknown origin) expressed in Escherichia coli […] using IGF1Rtide as substrate preincubated for 15 mins followed by substrate and ATP addition and measured after 90 mins by ADP-Glo luminescence […] assay"}, "[23]": {"test_system": "Mus musculus", "test": "Anti-necroptosis activity in 3xTg mouse hippocampus assessed as reduction in pMLKL activation at 2 to 10 mg/kg, po", "assay_type": "functional, organism-based", "conditions": "dose 2-10 mg/kg"}, "[24]": {"molecular_target": "hERG (KCNH2) (Homo sapiens, UniProt Q12809)", "sequence (Q12809 whole entry)": "as the sequence (Q12809 whole entry) above", "test": "Inhibition of human ERG expressed in CHO cells at 20 uM by Qpatch clamp method relative to control", "assay_type": "toxicity, cell-based", "conditions": "CHO cells that express hERG"}, "[25]": {"test_system": "Microglia", "test": "Anti-necroptosis activity in LPS/zVAD stimulated mouse primary microglia overexpressed with MAP4K4 assessed as reversal of translucent cytoplasm by TEM analysis", "assay_type": "functional, cell-based"}, "[26]": {"test_system": "Mus musculus", "test": "Anti-alzheimer activity against 8 month old 3xTg mouse model assessed as improved spatial preference towards annulus at 10 mg/kg, po administered 4 times per week for 4 weeks", "assay_type": "functional, organism-based"}, "[27]": {"molecular_target": "Cytochrome P450 3A5 (Homo sapiens, UniProt P20815)", "sequence (P20815 whole entry)": "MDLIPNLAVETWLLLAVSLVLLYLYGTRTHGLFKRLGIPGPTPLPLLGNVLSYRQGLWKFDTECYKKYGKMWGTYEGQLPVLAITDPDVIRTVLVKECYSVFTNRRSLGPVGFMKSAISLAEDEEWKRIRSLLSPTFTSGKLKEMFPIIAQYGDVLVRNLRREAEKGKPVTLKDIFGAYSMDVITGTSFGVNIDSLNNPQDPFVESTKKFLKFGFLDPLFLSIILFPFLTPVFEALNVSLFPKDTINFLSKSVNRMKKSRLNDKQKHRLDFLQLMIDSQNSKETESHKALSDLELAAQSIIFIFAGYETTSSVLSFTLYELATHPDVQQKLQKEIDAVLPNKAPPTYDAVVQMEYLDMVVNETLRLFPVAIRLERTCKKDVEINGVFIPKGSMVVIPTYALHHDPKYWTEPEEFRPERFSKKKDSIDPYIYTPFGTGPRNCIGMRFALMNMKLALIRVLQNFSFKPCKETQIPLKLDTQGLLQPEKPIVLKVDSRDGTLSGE", "test": "Inhibition of CYP3A5 (unknown origin) using midazolam as substrate incubated for 10 mins in presence of NADPH by LC-MS/MS analysis", "assay_type": "ADME"}, "[28]": {"molecular_target": "Cytochrome P450 1A2 (Homo sapiens, UniProt P05177)", "test": "Inhibition of CYP1A2 (unknown origin) using phenacetin as substrate incubated for 10 mins in presence of NADPH by LC-MS/MS analysis", "assay_type": "ADME"}, "[29]": {"test": "Metabolic stability in human liver microsomes assessed as clearance at 1 uM measured upto 60 mins in presence of NADPH and UDPGA by LC-MS/MS analysis", "assay_type": "ADME, Microsome", "conditions": "1 h"}, "[30]": {"test_system": "Microglia", "test": "Anti-necroptosis activity in LPS/zVAD stimulated mouse primary microglia overexpressed with ALK assessed as reversal of mitochondrial swelling by TEM analysis", "assay_type": "functional, cell-based"}},
  "note": "pIC50: −log10 of the molar value. Calls of active or inactive are those of the source. No cut-off for these calls is given here.",
  "data": [
    {"smiles": "Cc1cc(F)cc(Nc2ncc(Nc3ccc(SC(F)(F)F)cc3)cc2C(N)=O)c1", "values": [
      {"measurement": "Activity", "setting": "[1]", "value": "Active"},
      {"measurement": "Activity", "setting": "[2]", "value": "Active; Activity More Potent Than Nec-1"},
      {"measurement": "inhibition", "setting": "[3]", "value": "Dose-dependent-effect"},
      {"measurement": "Activity", "setting": "[4]", "value": "inactive"},
      {"measurement": "Activity", "setting": "[5]", "value": "inactive"},
      {"measurement": "Activity", "setting": "[6]", "value": "Active"},
      {"measurement": "pIC50", "setting": "[7]", "value": "< 4.70"},
      {"measurement": "Activity", "setting": "[8]", "value": "inactive"},
      {"measurement": "Activity", "setting": "[9]", "value": "Active"},
      {"measurement": "pIC50", "setting": "[10]", "value": 5.35},
      {"measurement": "Tmax", "setting": "[11]", "value": 2.93, "unit": "h"},
      {"measurement": "Activity", "setting": "[12]", "value": "Active"},
      {"measurement": "Activity", "setting": "[13]", "value": 100, "unit": "%"},
      {"measurement": "AUC(0-t) at 24 h", "setting": "[14]", "value": 2970, "unit": "ng·h/mL"},
      {"measurement": "Activity", "setting": "[15]", "value": "Active"},
      {"measurement": "Activity", "setting": "[16]", "value": "Active"},
      {"measurement": "inhibition", "setting": "[17]", "value": "Active"},
      {"measurement": "Activity", "setting": "[18]", "value": "Active"},
      {"measurement": "Activity", "setting": "[19]", "value": "Active"},
      {"measurement": "pIC50", "setting": "[20]", "value": 5.17},
      {"measurement": "Activity", "setting": "[21]", "value": "inactive"},
      {"measurement": "pIC50", "setting": "[22]", "value": 6.21},
      {"measurement": "Activity", "setting": "[23]", "value": "Active"},
      {"measurement": "inhibition at 20 µM", "setting": "[24]", "value": 11.3, "unit": "%"},
      {"measurement": "Activity", "setting": "[25]", "value": "inactive"},
      {"measurement": "Activity", "setting": "[26]", "value": "Active"},
      {"measurement": "pIC50", "setting": "[27]", "value": "< 5.00"},
      {"measurement": "pIC50", "setting": "[28]", "value": "< 5.00"},
      {"measurement": "CLH", "setting": "[29]", "value": 7, "unit": "µL/min/mg"},
      {"measurement": "Activity", "setting": "[30]", "value": "inactive"}
    ]}
  ]
}
